{
  "source": "paper PMC10216446",
  "about": "(Biomolecules, 2023)",
  "origin": "cited, not measured here",
  "key": {"IP6K": {"test_system": "IP6K", "conditions": "reported values; read-out: reported IC50 values for TNP"}, "human cytochrome P450s": {"test_system": "human cytochrome P450s", "design": "method as in PMID 27689003"}, "[1]": {"conditions": "stated as a known limitation of TNP, no reference given"}},
  "data": [
    {"compound": "O=[N+]([O-])c1ccc(CNc2nc(NCc3cccc(C(F)(F)F)c3)nc3nc[nH]c23)cc1", "note": "[TNP, N2-(m-trifluorobenzyl), N6-(p-nitrobenzyl)purine]", "values": [
      {"measurement": "IC50", "setting": "IP6K", "result": "250 to 1000", "unit": "nM"},
      {"measurement": "inhibition of human cytochrome P450s", "setting": "human cytochrome P450s", "result": "potent inhibitor of human cytochrome P450s"},
      {"measurement": "aqueous solubility", "setting": "[1]", "result": "poor"}
    ]}
  ]
}
